Data from patent US11413360B2, “Dual mode radiotracer and—therapeutics” (priority 2017, dated 2022).
Read-outs that look alike come from different tables or passages of the source.

What was measured:
Human Serum Albumin = Human Serum Albumin (Homo sapiens, UniProt P02768); test: HSA binding on Chiralpak HSA column; type: in vitro ADME
Experimental: The mobile phase (A: NH4OAc, 50 mM in water, pH 7 and B: isopropanol) was freshly prepared for each experiment and only used for one day. The column was kept at room temperature and each run was stopped after detection of the signal to reduce the acquisition time. All substances were dissolved in a 0.5 mg/ml concentration in 50% 2-propanol and 50% 50 mM pH 6.9 ammonium acetate buffer. […] All nine reference substances (see Table 1) were injected consecutively to establish a non-linear regression with OriginPro 2016G; see FIG. 1.

[1] = Octanol-water partition coefficient (log D) of radiolabelled ligands; type: physicochemical; settings: n-octanol/PBS, n = 6
Experimental: Approximately 1 MBq of the labelled tracer was dissolved in 1 mL of a 1:1 mixture (by volumes) of phosphate buffered saline (PBS, pH 7.4) and n-octanol in an Eppendorf tube. After vigorous mixing of the suspension for 3 minutes at room temperature, the vial was centrifuged at 15000 g for 3 minutes (Biofuge 15, Heraus Sepatech, Osterode, Germany) and 100 μL aliquots of both layers were measured in a gamma counter. The experiment was repeated at least six times.

[2] = in vivo
LNCaP cells = test: Internalization of radiolabelled ligands into LNCaP cells; type: cell-based
Experimental: Subsequent to the removal of the culture medium, the cells were washed once with 500 μL DMEM-F12 (5% BSA) and left to equilibrate for at least 15 min at 37° C. in 200 μL DMEM-F12 (5% BSA). Each well was treated with either 25 μL of either DMEM-F12 (5% BSA) or a 100 μM PMPA solution for blockade. […] The experiment was terminated by placing the 24-well plate on ice for 3 min and consecutive removal of the medium. Each well was rinsed with 250 μL HBSS and the fractions from these first two steps combined, representing the amount of free radioligand. Removal of surface bound activity was accomplished by incubation of the cells with 250 μL of ice-cold PMPA (10 μM in PBS) solution for 5 min and rinsed again with another 250 μL of ice-cold PBS. The internalized activity was determined by incubation of the cells in 250 μL 1 M NaOH and the combination with the fraction of a subsequent wash step with 250 μL 1.0 M NaOH. Each experiment (control and blockade) was performed in triplicate. Free, surface bound and internalized activity was quantified in a γ-counter. […] Data were corrected for non-specific internalization and normalized to the specific-internalization observed for the radioiodinated reference compound.

[3] = test system: prostate cancer tumor lesions; test: Human PET uptake in and detection of prostate cancer tumor lesions with 18F-labelled PSMA-SIFA3 (7); type: in vivo
Text: Gluteal muscle served as background.

[4] = test system: recurrent prostate cancer; test: PET/MR with 68Ga-labelled PSMA-SIFA3 (7) in one subject; type: in vivo, human; settings: 144 MBq, PET/MR 66 min after injection, one subject with biochemical recurrence
Experimental: As a proof on concept investigation of a ^68Ga-labelled SiFA substituted chelator-based PET tracers one subject with biochemical recurrence after radical prostatectomy (PSA 0.44 ng/ml, pT2c, pNO, Gleason 7b) underwent PET/MR 66 min after injection of 144 MBq ^68Ga-labelled PSMA-SIFA3 (7).

PSMA = target: T1, PSMA (Homo sapiens, UniProt Q04609); test: Determination of PSMA affinity (IC50), competition with ([125I]I-BA)KuE on LNCaP cells; type: binding; settings: ([125I]I-BA)KuE 0.2 nM, 1 h, 4° C., mean ± SD, read-out: IC50
T1 construct: endogenous in cells; host or cells: LNCaP cells
T1 sequence (Q04609 whole entry): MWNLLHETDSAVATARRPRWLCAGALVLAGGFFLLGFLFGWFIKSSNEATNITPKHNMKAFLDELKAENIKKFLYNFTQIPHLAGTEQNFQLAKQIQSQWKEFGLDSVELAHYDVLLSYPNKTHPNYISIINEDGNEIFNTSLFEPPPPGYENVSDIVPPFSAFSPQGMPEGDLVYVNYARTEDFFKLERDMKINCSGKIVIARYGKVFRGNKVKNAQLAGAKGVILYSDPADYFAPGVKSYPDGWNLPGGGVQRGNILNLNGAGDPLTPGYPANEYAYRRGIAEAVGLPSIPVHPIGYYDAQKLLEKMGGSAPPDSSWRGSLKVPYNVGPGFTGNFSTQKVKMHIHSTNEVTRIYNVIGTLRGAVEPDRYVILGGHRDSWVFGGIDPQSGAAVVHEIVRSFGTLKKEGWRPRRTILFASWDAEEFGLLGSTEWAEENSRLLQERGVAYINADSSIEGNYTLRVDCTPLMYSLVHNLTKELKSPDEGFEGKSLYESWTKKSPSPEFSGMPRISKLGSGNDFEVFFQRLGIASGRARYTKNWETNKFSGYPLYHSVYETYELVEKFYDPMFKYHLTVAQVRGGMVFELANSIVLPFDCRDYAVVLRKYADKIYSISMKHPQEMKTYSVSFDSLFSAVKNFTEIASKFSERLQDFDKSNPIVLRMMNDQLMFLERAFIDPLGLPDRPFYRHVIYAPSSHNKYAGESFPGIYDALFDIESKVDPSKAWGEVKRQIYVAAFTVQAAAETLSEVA
Experimental: After removal of the culture medium, the cells were treated once with 500 μL of HBSS (Hank's balanced salt solution, Biochrom, Berlin, Germany, with addition of 1% bovine serum albumin (BSA)) and left 15 min on ice for equilibration in 200 μL HBSS (1% BSA). […] Quantification of bound and free radioligand was accomplished in a γ-counter.

[5] = 18F-labelled, of 72 lesions analysed
[6] = 35 lesions with no correlate or small size on morphological imaging, 18F-labelled, human PET
[7] = bone metastases (n=21), 18F-labelled, human PET
[8] = local tumor (n=24), 18F-labelled, human PET
[9] = lymph node metastases (n=23), 18F-labelled, human PET
[10] = tumor lesions, 18F-labelled, human PET, n = 72
[11] = visceral metastases (n=4), 18F-labelled, human PET

Sequence of Human Serum Albumin (P02768 25-609): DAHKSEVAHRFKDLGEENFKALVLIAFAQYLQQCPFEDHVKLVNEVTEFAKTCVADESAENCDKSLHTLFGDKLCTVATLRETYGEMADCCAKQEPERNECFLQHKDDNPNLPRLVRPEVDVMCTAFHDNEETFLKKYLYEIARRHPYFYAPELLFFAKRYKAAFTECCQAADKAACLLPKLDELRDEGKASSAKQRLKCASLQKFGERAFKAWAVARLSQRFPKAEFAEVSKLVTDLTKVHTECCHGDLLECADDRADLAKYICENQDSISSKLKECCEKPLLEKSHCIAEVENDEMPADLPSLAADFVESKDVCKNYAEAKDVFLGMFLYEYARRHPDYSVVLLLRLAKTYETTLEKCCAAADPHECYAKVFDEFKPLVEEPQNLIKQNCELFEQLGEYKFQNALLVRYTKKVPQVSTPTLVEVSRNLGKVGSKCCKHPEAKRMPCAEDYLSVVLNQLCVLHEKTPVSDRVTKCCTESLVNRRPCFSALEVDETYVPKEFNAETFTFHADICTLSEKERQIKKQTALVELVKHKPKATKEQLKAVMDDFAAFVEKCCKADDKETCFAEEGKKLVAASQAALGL

Q: With `CC(C)(C)[Si](F)(c1ccc(C(=O)NC[C@@H](NC(=O)CCC(C(=O)O)N2CCN(CC(=O)O)CCN(CC(=O)O)CCN(CC(=O)O)CC2)C(=O)N[C@H](CCCCNC(=O)CCC(=O)NCCC[C@@H](NC(=O)CC[C@H](NC(=O)N[C@@H](CCC(=O)O)C(=O)O)C(=O)O)C(=O)O)C(=O)O)cc1)C(C)(C)C` (some centres unmarked) [ligand 7, PSMA-SIFA3] as the compound, how does the HSA binding (Human Serum Albumin; natGa-natF-L) read?
A: Its HSA binding is 95.7%.

Q: And the HSA binding (Human Serum Albumin; natLu-natF-L)?
A: The HSA binding was 97.7%.

Q: And the logD ([1]; pH 7.4, 18F-L)?
A: Its logD is -1.98 ± 0.04.

Q: What about the logD ([1]; pH 7.4, 68Ga-natF-L) of the same compound?
A: Its logD is -3.18 ± 0.05.

Q: What about the logD ([1]; pH 7.4, 177Lu-natF-L) of the same compound?
A: Its logD is -4.2 ± 0.09.

Q: And the “adverse events / clinically detectable pharmacological effects” value [2]?
A: The value was “No adverse events or clinically detectable pharmacological effects were noted”.

Q: What about the Internalization (LNCaP cells; 18F-L, 0.5 nM, 1 hour, 37° C., % of reference ligand ([125I]I-BA)KuE, mean ± SD) of the same compound?
A: Its Internalization is 164.8 ± 4.5%.

Q: And the Internalization (LNCaP cells; 177Lu-natF-L, 0.5 nM, 1 hour, 37° C., % of reference ligand ([125I]I-BA)KuE, mean ± SD)?
A: The Internalization was 185.8 ± 4.5%.

Q: What about the Internalization (LNCaP cells; 1 h, 0.0005 µM) of the same compound?
A: Its Internalization is 126.0 ± 13.1%.

Q: What about the SUVmax max [3] of the same compound?
A: Its SUVmax max is 25.

Q: What about the SUVmean max [3] of the same compound?
A: Its SUVmean max is 28.3.

Q: And the “ratio SUVmax to background max” value [3]?
A: Its value is 43.8.

Q: What about the “ratio SUVmean to background max” value [3] of the same compound?
A: The value was 56.6.

Q: And the “patients in whom lesions indicative for prostate cancer were detected” value ([3]; 18F-labelled, 53 subjects imaged (primary staging n=6, recurrent disease n=47))?
A: Its value is 39 patients.

Q: And the “lesions with no correlate on morphological imaging” value [3, 5]?
A: Its value is 21 lesions.

Q: What about the “lesions with size of equal or less than 5 mm on morphological imaging” value [3, 5] of the same compound?
A: Its value is 14 lesions.

Q: What about the “uptake in prostate cancer lesions (individual patient images)” value ([3]; 18F-labelled, single patients, FIG. 26 and FIG. 27) of the same compound?
A: Its value is “high uptake”.

Q: What about the SUVmax mean [3, 6] of the same compound?
A: Its SUVmax mean is 16.7.

Q: What about the SUVmax min [3, 6] of the same compound?
A: Its SUVmax min is 9.2.

Q: And the SUVmean mean [3, 6]?
A: The SUVmean mean was 13.3.

Q: What about the SUVmean min [3, 6] of the same compound?
A: Its SUVmean min is 6.4.

Q: What about the “ratio SUVmax to background mean” value [3, 6] of the same compound?
A: Its value is 18.3.

Q: And the “ratio SUVmax to background min” value [3, 6]?
A: Its value is 5.8.

Q: What about the “ratio SUVmean to background mean” value [3, 6] of the same compound?
A: The value was 22.9.

Q: What about the “ratio SUVmean to background min” value [3, 6] of the same compound?
A: Its value is 7.1.

Q: And the SUVmax max [3, 7]?
A: The SUVmax max was 95.4.

Q: And the SUVmax mean [3, 7]?
A: The SUVmax mean was 31.2.

Q: And the SUVmax min [3, 7]?
A: The SUVmax min was 7.9.

Q: And the SUVmean max [3, 7]?
A: The SUVmean max was 71.7.

Q: And the SUVmean mean [3, 7]?
A: The SUVmean mean was 22.2.

Q: What about the SUVmean min [3, 7] of the same compound?
A: Its SUVmean min is 5.3.

Q: And the “ratio SUVmax to background max” value [3, 7]?
A: Its value is 73.4.

Q: What about the “ratio SUVmax to background mean” value [3, 7] of the same compound?
A: The value was 32.8.

Q: What about the “ratio SUVmax to background min” value [3, 7] of the same compound?
A: The value was 7.9.

Q: And the “ratio SUVmean to background max” value [3, 7]?
A: Its value is 80.

Q: What about the “ratio SUVmean to background mean” value [3, 7] of the same compound?
A: The value was 36.6.

Q: What about the “ratio SUVmean to background min” value [3, 7] of the same compound?
A: The value was 8.8.

Q: And the SUVmax max [3, 8]?
A: The SUVmax max was 75.1.

Q: What about the SUVmax mean [3, 8] of the same compound?
A: Its SUVmax mean is 26.9.

Q: What about the SUVmax min [3, 8] of the same compound?
A: The SUVmax min was 4.

Q: And the SUVmean max [3, 8]?
A: Its SUVmean max is 19.3.

Q: What about the SUVmean mean [3, 8] of the same compound?
A: Its SUVmean mean is 19.3.

Q: And the SUVmean min [3, 8]?
A: The SUVmean min was 2.7.

Q: And the “ratio SUVmax to background max” value [3, 8]?
A: The value was 83.4.

Q: What about the “ratio SUVmax to background mean” value [3, 8] of the same compound?
A: The value was 29.6.

Q: What about the “ratio SUVmax to background min” value [3, 8] of the same compound?
A: The value was 5.

Q: And the “ratio SUVmean to background max” value [3, 8]?
A: Its value is 83.2.

Q: And the “ratio SUVmean to background mean” value [3, 8]?
A: The value was 32.4.

Q: And the “ratio SUVmean to background min” value [3, 8]?
A: The value was 5.4.

Q: And the SUVmax max [3, 9]?
A: Its SUVmax max is 67.5.

Q: And the SUVmax mean [3, 9]?
A: The SUVmax mean was 22.2.

Q: What about the SUVmax min [3, 9] of the same compound?
A: The SUVmax min was 8.1.

Q: What about the SUVmean max [3, 9] of the same compound?
A: The SUVmean max was 44.6.

Q: What about the SUVmean mean [3, 9] of the same compound?
A: The SUVmean mean was 16.6.

Q: And the SUVmean min [3, 9]?
A: Its SUVmean min is 6.4.

Q: What about the “ratio SUVmax to background max” value [3, 9] of the same compound?
A: Its value is 63.6.

Q: And the “ratio SUVmax to background mean” value [3, 9]?
A: The value was 23.7.

Q: What about the “ratio SUVmax to background min” value [3, 9] of the same compound?
A: The value was 5.8.

Q: What about the “ratio SUVmean to background max” value [3, 9] of the same compound?
A: Its value is 70.7.

Q: And the “ratio SUVmean to background mean” value [3, 9]?
A: Its value is 27.3.

Q: And the “ratio SUVmean to background min” value [3, 9]?
A: Its value is 7.1.

Q: What about the SUVmax max [3, 10] of the same compound?
A: The SUVmax max was 95.4.

Q: And the SUVmax mean [3, 10]?
A: The SUVmax mean was 26.6.

Q: And the SUVmax min [3, 10]?
A: Its SUVmax min is 4.0.

Q: And the SUVmean max [3, 10]?
A: The SUVmean max was 71.7.

Q: And the SUVmean mean [3, 10]?
A: The SUVmean mean was 19.2.

Q: What about the SUVmean min [3, 10] of the same compound?
A: Its SUVmean min is 2.7.

Q: And the “ratio SUVmax to background max” value [3, 10]?
A: Its value is 83.4.

Q: What about the “ratio SUVmax to background mean” value [3, 10] of the same compound?
A: Its value is 28.6.

Q: And the “ratio SUVmax to background min” value [3, 10]?
A: The value was 5.0.

Q: What about the “ratio SUVmean to background max” value [3, 10] of the same compound?
A: The value was 83.2.

Q: What about the “ratio SUVmean to background mean” value [3, 10] of the same compound?
A: The value was 31.9.

Q: And the “ratio SUVmean to background min” value [3, 10]?
A: Its value is 5.4.

Q: What about the SUVmax max [3, 11] of the same compound?
A: Its SUVmax max is 32.5.

Q: And the SUVmax mean [3, 11]?
A: Its SUVmax mean is 26.1.

Q: And the SUVmax min [3, 11]?
A: The SUVmax min was 20.4.

Q: And the SUVmean max [3, 11]?
A: Its SUVmean max is 19.1.

Q: And the SUVmean mean [3, 11]?
A: The SUVmean mean was 17.4.

Q: What about the SUVmean min [3, 11] of the same compound?
A: Its SUVmean min is 15.5.

Q: What about the “ratio SUVmax to background max” value [3, 11] of the same compound?
A: Its value is 40.6.

Q: What about the “ratio SUVmax to background mean” value [3, 11] of the same compound?
A: Its value is 28.9.

Q: What about the “ratio SUVmax to background min” value [3, 11] of the same compound?
A: Its value is 18.5.

Q: And the “ratio SUVmean to background max” value [3, 11]?
A: Its value is 38.2.

Q: And the “ratio SUVmean to background mean” value [3, 11]?
A: The value was 30.2.

Q: And the “ratio SUVmean to background min” value [3, 11]?
A: The value was 22.1.

Q: What about the “uptake in lesion (proof of concept)” value [4] of the same compound?
A: The value was “Uptake typical for recurrent prostate cancer is demonstrated in a 2 mm lymph node”.

Q: And the IC50 (PSMA; natF-L (uncomplexed))?
A: Its IC50 is 3.5 ± 0.2 nM.

Q: What about the IC50 (PSMA; natGa-natF-L) of the same compound?
A: The IC50 was 3 ± 0.7 nM.

Q: What about the IC50 (PSMA; natLu-natF-L) of the same compound?
A: Its IC50 is 3.9 ± 0.5 nM.
